The results in this text go back to patent publication US20120183524A1, “MOLECULAR TARGETS FOR TREATMENT OF INFLAMMATION” (University Of Rochester, priority 2007, published 2012).

For this assay, the system named is RelB. Kind of assay: RelB, IKKα, NIK and RelA/p65 levels by western blotting in CSE-treated Ramos B-cells. To be noted: B-cells pretreated with ALLN 25 μM for 20 min, then CSE 0.5% and 1.0% for 1 h; whole cell lysates, immunoblotting. Type of assay: cell-based, human. The method, then: MonoMac6-, Ramos B- and WEHI-231-cells were seeded at a density of less than 1×10^6 cells/well (total final volume=2 ml), grown to ˜80-90% confluency in six-well plates containing RPMI 1640 medium with 10% FBS, washed in Ca2+- and Mg2+-free PBS, and then exposed to various treatments in media containing 1% serum. All treatments were performed in duplicate. The cells were treated with CSE (0.5, 1.0 and 5%) for 1 h at 37° C. with 7.5% CO2. At the end of treatment, the cells were washed with cold, sterile Ca2+- and Mg2+-free PBS and were lysed in RIPA buffer as whole lysate (western blotting), and the lysates stored at −80° C. […]
Lung tissue homogenate samples (cytoplasmic and nuclear proteins) were separated on a 7.5%-12% SDS-PAGE. […] The next day, membranes were washed and incubated for 1 h at room temperature with the appropriate secondary antibody linked to horseradish peroxidase (Dako, Santa Barbara, Calif.), bound complexes were detected with the use of the enhanced chemiluminescence method (Jackson Immunology Research, West Grove, Pa.).

Non-standard residues stand in square brackets, D forms with d. Residues, ends and D or L forms follow the SMILES beside them. Nle = CCCC[C@H](N)C(=O)O

With `CCCC[C@@H](C=O)NC(=O)[C@H](CC(C)C)NC(=O)[C@H](CC(C)C)NC(C)=O` [ALLN] (Ac-Leu-Leu-[Nle]-aldehyde), the “degradation of RelB in response to CSE” value was “prevented the degradation of RelB”.
